“Also recorded” adds a separate entry of the source.
Key:
[1] = system: failing human right ventricular trabeculae; assay: contractile response of isolated right ventricular trabeculae from failing human hearts; settings: for maximal isoproterenol-stimulated systolic tension: failing hearts
Protocol: (§1) Nonfailing hearts were obtained from local potential organ donors whose hearts were not transplanted because of physical or ABO blood type incompatibility. Failing hearts were from patients with end-stage heart failure due to ischemic or non-ischemic dilated cardiomyopathies who underwent cardiac transplantation. The demographic characteristics of the hearts are provided in Results. The contractile response of isolated, field stimulated, human trabeculae was assessed as previously described {1755; a-c}. Trabeculae of uniform size (1 to 2×6 to 8 mm) were mounted in 80 ml muscle bath chambers in Tyrode's solution at pH 7.45 bubbled with 95% O2-5% CO2 at 36^0. After equilibration, a tension of 75% of Lmax was applied to each individual trabeculum. Field-stimulation by a 5-ms pulse at 10% above threshold was then applied, and after equilibration full dose-response curves to isoproterenol, bucindolol or xamoterol were performed using the indicated concentrations and application of increasing doses every 5 minutes. In experiments in which forskolin was used to enhance signal transduction {e,f}, 10^−6 M of this adenylyl cyclase activator was applied to the tissue baths 15-20 minutes prior to the performance of dose-response curves, and allowed to achieve stability of tension response. Systolic tension at each dose was calculated as the stimulated tension in mN/mm^2 minus baseline tension. The maximum tension, concentration of isoproterenol that produced 50% of the maximum developed tension (EC50) and curve slope were computed by nonlinear repeated measures analysis of covariance. […] Statistical methods were employed as described in Examples 3 and 4.

[2] = system: nonfailing human right ventricular trabeculae; assay: contractile response of isolated right ventricular trabeculae from nonfailing human hearts
Protocol: as §1

heart failure patients = settings: cited from earlier work
norepinephrine = settings: 3 months, MOXCON Trial; cited from earlier work
[3] = system: β1-Arg389 transgenic mice (ventricular expression of human β1AR); assay: chronic β-blockade in transgenic mice, Western blots of ventricular signaling and Ca2+-handling proteins; format: in vivo, mouse; settings: 0.5 mg/ml in drinking water for 6 months; ANOVA P<0.002
Protocol: (§2) Using the α-myosin heavy chain promoter, transgenic mice with targeted ventricular expression of the human β1AR (Arg389 or Gly389 forms) were utilized to ascertain allele-specific responses to chronic administration of the […] propranolol. […] The generation of these mice and their partial characterization has recently been reported in detail elsewhere (Perez et al, 2003). For the current studies, 3-month-old mice of both genotypes, as well as nontransgenic mice, were treated with propranolol (0.5 mg/ml) in their drinking water, or water without propranolol (control) continuously for 6 months. Hearts were then removed and ventricular protein extracts prepared. These were subjected to Western blotting to ascertain expression of the following proteins using methods previously described (Perez et al., 2003): Gαs, Gαi2, G-protein coupled receptor kinase-2 (GRK2), adenylyl cyclase type 5 (AC5), total phospholamban (T-PLN), phosphorylated phospholamban (P-PLN) and sarcoplasmic endoplasmic reticulum calcium ATPase-2A (SERCA). Treatment effect was assessed by comparing expression of the proteins of untreated and propranolol treated mice, within genotype, by ANOVA. The study was approved by the University of Cincinnati Animal Use and Care Committee.

[4] = system: β1-Gly389 transgenic mice (ventricular expression of human β1AR); assay: as above; format: in vivo, mouse; settings: 0.5 mg/ml in drinking water for 6 months; P=0.67
Protocol: as §2

[5] = U.S. enrolled patients in MERIT-HF

## COc1ccccc1OCCNCC(O)COc1cccc2[nH]c3ccccc3c12 (stereo not drawn) [carvedilol]
[1]; failing heart, forskolin pretreated preparations
  positive inotropic signal compared with bucindolol: more of a positive inotropic signal than bucindolol

## CC(C)NCC(O)c1ccc(O)c(O)c1 (stereo not drawn) [isoproterenol]
[1]; β1-Arg389 homozygotes
  maximal isoproterenol-stimulated systolic tension: 9.4±1.9 mN/mm^2
[1]; β1-Gly389 carriers
  maximal isoproterenol-stimulated systolic tension: 2.4±0.60 mN/mm^2
[2]; β1-Arg389 homozygotes
  maximal isoproterenol-stimulated systolic tension: 13±2.5 mN/mm^2
[2]; β1-Gly389 carriers
  maximal isoproterenol-stimulated systolic tension: 5.2±1.4 mN/mm^2

## COCCc1ccc(OCC(O)CNC(C)C)cc1.COCCc1ccc(OCC(O)CNC(C)C)cc1.O=C(O)CCC(=O)O (stereo not drawn) [metoprolol CR/XL, metoprolol succinate CR/XL]
Heart failure patients; MERIT-HF US Pts (n = 1071/3991)
  Mortality + HF Hospitalization hazard ratio vs placebo: ~0.84; 200 Ev
Heart failure patients; MERIT-HF entire cohort (UCL 0.80)
  mortality plus heart failure hospitalization hazard ratio vs placebo: 0.69
Heart failure patients; [5]
  mortality increase: 5%
  mortality+HF hospitalization decrease: 16%

## COc1nc(C)nc(Cl)c1N=C1NCCN1 [moxonidine]
norepinephrine
  relative reduction in norepinephrine: 24%

## CC(C)NCC(O)COc1cccc2ccccc12 (stereo not drawn) [propranolol]
[3]
  treatment effect on expression of cardiac signaling and Ca2+-handling proteins: overall treatment response
[4]
  treatment effect on expression of cardiac signaling and Ca2+-handling proteins: no effect

## O=C(NCCNCC(O)COc1ccc(O)cc1)N1CCOCC1 (stereo not drawn) [xamoterol]
[1]; β1AR Arg/Arg, forskolin pretreatment
  inotropic effect on systolic force (dose-response curve slope): increase in force
[1]; β1AR Arg/Arg, forskolin pretreatment, listed as Xamoterol
  inotropic effect on systolic force (dose-response curve slope): positive inotropic effect
[1]; β1AR Arg/Arg, without forskolin
  inotropic effect on systolic force (dose-response curve slope): increase in force; also recorded: positive inotropic effect
[1]; β1AR Gly carriers, forskolin pretreatment
  inotropic effect on systolic force (dose-response curve slope): increase in force
[1]; β1AR Gly carriers, forskolin pretreatment, listed as Xamoterol
  inotropic effect on systolic force (dose-response curve slope): positive inotropic effect
[1]; β1AR Gly carriers, without forskolin
  inotropic effect on systolic force (dose-response curve slope): negative inotropic effect

From patent US8093286B2, “Methods for treatment with bucindolol based on genetic targeting” (The Regents of the University of Colorado, a body corporate, priority 2004, dated 2012)
